Measured values published in US12037346B2, “Amino-substituted heteroaryls for treating cancers with EGFR mutations” (Nuvalent, Inc., priority 2021, dated 2024).
pIC50: −log10 of the molar value.

Tests used:
Assay type in all cases: cell-based
[1] = test system: A431 cells (amplification of the wild-type EGFR gene), phospho-ERK Thr202/Tyr204; test: Cellular phosphorylation assay, pERK (phospho-ERK Thr202/Tyr204 AlphaLISA) in A431; conditions: Homo sapiens, A-431, compound incubated for 5 hours
Protocol: (§1) Besides Ba/F3s, two commercially available cell lines were also used. NCI-H1781 is a HER2 exon20 insertion cell line bearing HER2-A775_G776insV-G776C. A431 bears amplification of the wild-type EGFR gene.
(§2) Ba/F3 cells were plated at 50,000 cells/well (40 μL), or NCI-H1781 cells or A431 cells were plated at 12,500 cells/well (40 μL), in a 384-well plate for 1 day. Test compounds (40 nL) were then added in a 3-fold dilution series using the TECAN EV0200 liquid handler and incubated for 5 hours. Only for pEGFR analysis in A431, the cells were briefly stimulated with EGF (30 ng/mL) for 15 minutes. Media were removed using Apricot Designs. Phosphoproteins were analyzed using the phospho-EGFR Tyr1068 AlphaLISA kit (“pEGFR”; PerkinElmer #ALSU-PEGFR-B10K;) phospho-ERK Thr202/Tyr204 AlphaLISA kit (“pERK”; PerkinElmer #ALSU-PERK-A10K) or the phospho-ErbB2 Tyr1221/1222 AlphaLISA kit (“pHER2”; PerkinElmer #ALSU-PEB2-A10K;) according to the manufacturer's instructions. Briefly, cells were lysed with lysis buffer (10 μL) containing protease-inhibitor and phosphatase-inhibitor cocktails. The lysates were transferred into a new optical plate, incubated with the acceptor mix (5 μL) for 1.5-2 hours at room temperature in darkness, and then mixed with the donor mix (5 μL) overnight in darkness. Fluorescence was measured on a plate reader using the appropriate AlphaLISA settings. Half-maximal inhibitory concentration (IC50) was calculated from percent inhibition and inhibitor concentration using four-parameter logistic regression. […]

[2] = target: T1, wild-type EGFR (A431 cells) (Homo sapiens, UniProt P00533); test: Cellular phosphorylation assay, pEGFR (phospho-EGFR Tyr1068 AlphaLISA) in A431; conditions: compound incubated for 5 hours, EGF (30 ng/mL) for 15 minutes
T1 construct: A431 bears amplification of the wild-type EGFR gene; endogenous in cells; host or cells: A431
T1 sequence (P00533 25-1210): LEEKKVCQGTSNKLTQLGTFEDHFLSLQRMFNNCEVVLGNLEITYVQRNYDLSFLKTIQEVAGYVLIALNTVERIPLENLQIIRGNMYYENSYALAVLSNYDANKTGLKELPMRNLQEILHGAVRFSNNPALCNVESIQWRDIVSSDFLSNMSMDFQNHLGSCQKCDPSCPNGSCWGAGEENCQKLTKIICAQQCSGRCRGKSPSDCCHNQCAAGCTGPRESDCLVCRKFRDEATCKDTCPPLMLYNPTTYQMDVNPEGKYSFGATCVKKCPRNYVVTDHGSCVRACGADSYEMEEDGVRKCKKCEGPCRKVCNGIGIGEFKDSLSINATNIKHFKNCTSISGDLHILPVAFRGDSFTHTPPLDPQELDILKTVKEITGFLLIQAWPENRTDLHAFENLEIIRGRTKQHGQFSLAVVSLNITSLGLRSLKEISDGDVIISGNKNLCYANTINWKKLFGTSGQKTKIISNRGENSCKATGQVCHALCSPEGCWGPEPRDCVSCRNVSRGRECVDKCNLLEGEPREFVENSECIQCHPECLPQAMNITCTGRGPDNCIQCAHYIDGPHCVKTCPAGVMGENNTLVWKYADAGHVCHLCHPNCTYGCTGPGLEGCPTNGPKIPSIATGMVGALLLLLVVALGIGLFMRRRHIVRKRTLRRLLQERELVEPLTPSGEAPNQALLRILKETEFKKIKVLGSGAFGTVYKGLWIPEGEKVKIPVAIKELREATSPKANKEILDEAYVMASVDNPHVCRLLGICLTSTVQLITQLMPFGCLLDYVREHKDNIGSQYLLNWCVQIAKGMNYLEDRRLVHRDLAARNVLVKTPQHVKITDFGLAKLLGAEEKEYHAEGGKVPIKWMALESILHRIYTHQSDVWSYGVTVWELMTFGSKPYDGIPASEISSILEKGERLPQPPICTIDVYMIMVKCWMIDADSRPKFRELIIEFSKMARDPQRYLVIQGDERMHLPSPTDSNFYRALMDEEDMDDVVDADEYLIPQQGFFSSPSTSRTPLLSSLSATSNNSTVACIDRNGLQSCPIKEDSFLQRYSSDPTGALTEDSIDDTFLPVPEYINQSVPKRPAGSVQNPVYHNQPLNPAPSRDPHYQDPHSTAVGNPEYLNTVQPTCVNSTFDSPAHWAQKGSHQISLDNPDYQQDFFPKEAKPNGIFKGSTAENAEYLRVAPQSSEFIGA
Protocol: as §1, §2

[3] = target: Ba/F3 HER2-YVMA cells (HER2-A775_G776insYVMA) (Homo sapiens, UniProt P04626, DUP772-775, cells depend on it); test: Cell proliferation assay (CellTiter-Glo), Ba/F3 HER2-YVMA; conditions: read-out: Ba/F3 HER2-YVMA cell proliferation IC50
Ba/F3 HER2-YVMA cells (HER2-A775_G776insYVMA), sequence (P04626 with tags, fused parts or gaps DUP772-775): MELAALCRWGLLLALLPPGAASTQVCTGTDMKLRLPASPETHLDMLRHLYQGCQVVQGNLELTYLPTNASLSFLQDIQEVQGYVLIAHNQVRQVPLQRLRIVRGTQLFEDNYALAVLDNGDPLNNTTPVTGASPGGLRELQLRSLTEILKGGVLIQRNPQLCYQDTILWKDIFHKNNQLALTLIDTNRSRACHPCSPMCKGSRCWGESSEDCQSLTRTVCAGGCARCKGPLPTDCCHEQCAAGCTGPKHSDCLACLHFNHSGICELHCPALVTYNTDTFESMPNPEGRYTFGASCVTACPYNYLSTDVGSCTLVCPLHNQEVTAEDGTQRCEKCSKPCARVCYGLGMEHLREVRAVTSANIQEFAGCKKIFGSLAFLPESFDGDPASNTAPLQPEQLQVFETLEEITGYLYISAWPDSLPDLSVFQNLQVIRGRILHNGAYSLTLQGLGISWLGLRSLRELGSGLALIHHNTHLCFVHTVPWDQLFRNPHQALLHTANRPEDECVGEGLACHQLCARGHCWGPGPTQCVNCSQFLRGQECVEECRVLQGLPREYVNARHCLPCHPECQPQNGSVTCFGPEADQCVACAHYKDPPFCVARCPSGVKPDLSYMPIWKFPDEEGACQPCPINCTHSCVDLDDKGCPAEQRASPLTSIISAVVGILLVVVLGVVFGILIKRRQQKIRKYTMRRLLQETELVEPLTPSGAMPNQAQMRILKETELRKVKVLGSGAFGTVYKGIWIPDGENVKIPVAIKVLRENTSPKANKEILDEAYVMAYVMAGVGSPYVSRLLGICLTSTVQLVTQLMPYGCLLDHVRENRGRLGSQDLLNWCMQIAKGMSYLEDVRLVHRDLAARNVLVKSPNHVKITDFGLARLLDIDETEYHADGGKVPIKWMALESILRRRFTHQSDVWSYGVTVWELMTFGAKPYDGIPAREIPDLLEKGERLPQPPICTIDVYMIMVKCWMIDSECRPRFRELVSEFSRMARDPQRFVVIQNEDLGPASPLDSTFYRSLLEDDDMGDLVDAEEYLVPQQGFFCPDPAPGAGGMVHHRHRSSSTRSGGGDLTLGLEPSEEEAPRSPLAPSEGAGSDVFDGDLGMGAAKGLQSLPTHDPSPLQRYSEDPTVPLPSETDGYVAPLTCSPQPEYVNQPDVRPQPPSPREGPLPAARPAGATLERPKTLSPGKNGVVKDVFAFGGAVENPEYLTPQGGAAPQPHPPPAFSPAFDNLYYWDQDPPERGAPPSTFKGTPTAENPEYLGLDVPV
Protocol: The gene encoding HER2-A775_G776insYVMA (“HER2-YVMA”) was synthesized at GeneRay, cloned into the retroviral construct pMSCV-puro (Biovector), and packaged into retroviral particles. The virus was used to infect Ba/F3 cells (RIKEN) at multiplicity of infection=1 or 10 for 1 day. Infected cells were rescued in media (RPMI-1640 with 10% fetal bovine serum and 1% streptomycin and penicillin) supplemented with mouse IL-3 (10 ng/mL) for 2 days, and stable cell lines were selected by IL-3 withdrawal and puromycin (0.8 μg/mL) for 7 days. Monoclones were selected by single-cell dilution in IL-3-free medium containing puromycin ([…]). Transformation of desired genes was confirmed by Sanger sequencing and western blot using the following antibody: HER2 (CST #2242).
Ba/F3 cells were plated at 1,000 cells/well (40 μL), or NCI-H1781 or A431 cells were plated at 2,000 cells/well (40 μL), in a 384-well plate for 1 day. Test compounds (40 nL) were then added in a 3-fold dilution series using the TECAN EV0200 liquid handler and incubated for 48 hours (“2 days”), 72 hours (“3 days”), or 48 hours followed by renewal of compound solutions and further incubation for 72 hours (“2 days/3 days”). The 72-hour assay was necessary for NCI-H1781 cells, which are slow-growing, and the resupply of fresh compounds on day 3 obviated the potential confounding effects arising from compound degradation in cell media over 72 hours. Plates were equilibrated at room temperature for 15 minutes followed by addition of 40 μL CellTiter-Glo reagent (Promega). Luminescence was measured on a plate reader. Half-maximal inhibitory concentration (IC50) was calculated from percent inhibition and inhibitor concentration using four-parameter logistic regression. […] In these cases, the regression curve was drawn only for the first inflexion to accurately measure on-target growth inhibitory effect.
Ba/F3, NCI-H1781, and A431 proliferation is driven by the oncogenes in the same way that cancer cell proliferation in humans is driven by the expression of equivalent oncogenes.

Row | SMILES | pIC50 [1] | pIC50 [2] | GI50 [3]
1 | C=CC(=O)N1CC=C(c2ccc3ncnc(Nc4ccc(Oc5ccc6ocnc6c5)c(C)c4)c3n2)CC1 [Example 10] | 6.30 to 7.00 | > 7.00 | < 100 nM
2 | C=C(F)C(=O)N1CCN(c2ccc3ncnc(Nc4ccc(Oc5ccn6ncnc6c5)c(C)c4)c3n2)CC1 [Example 24] |  | ≤ 6.00 | 500 to 1000 nM
3 | Cc1cc(Nc2ncnc3ccc(C4=CCN(C(=O)/C=C/C5CCCN5C)CC4)nc23)ccc1Oc1ccn2ncnc2c1 (stereo not drawn) [Example 25] | ≤ 6.00 | ≤ 6.00 | 100 to 500 nM
4 | C=CC(=O)N1CCC=C(c2ccc3ncnc(Nc4ccc(Oc5ccn6ncnc6c5)c(C)c4)c3n2)C1 [Example 27] | ≤ 6.00 | ≤ 6.00 | 100 to 500 nM
5 | C=CC(=O)N1CCC(c2ccc3ncnc(Nc4ccc(Oc5ccn6ncnc6c5)c(C)c4)c3n2)C(C)C1 (stereo not drawn) [Example 28] | ≤ 6.00 | ≤ 6.00 | 100 to 500 nM
6 | C=CC(=O)N1CC=C(c2ccc3ncnc(Nc4ccc(Oc5ccn6ncnc6c5)c(C)c4)c3c2F)CC1 [Example 30] |  | ≤ 6.00 | 100 to 500 nM
7 | C=CC(=O)N1CC(c2ccc3ncnc(Nc4ccc(Oc5ccn6ncnc6c5)c(C)c4)c3n2)C1 [Example 33] | ≤ 6.00 | ≤ 6.00 | 100 to 500 nM
8 | C=CC(=O)N1C[C@@H]2CN(c3ncc4ncnc(Nc5ccc(Oc6ccn7ncnc7c6)c(C)c5F)c4n3)C[C@@H]2C1 [Example 46] |  | ≤ 6.00 | 100 to 500 nM
9 | C=CC(=O)N1CCC2(C1)CN(c1ncc3ncnc(Nc4ccc(Oc5ccn6ncnc6c5)c(C)c4F)c3n1)C2 [Example 47] |  | ≤ 6.00 | 100 to 500 nM
10 | C=CC(=O)N1CCC2(CCN(c3ncc4ncnc(Nc5ccc(Oc6ccn7ncnc7c6)c(C)c5F)c4n3)C2)C1 (stereo not drawn) [Example 48] |  | ≤ 6.00 | 100 to 500 nM
11 | C=CC(=O)N1CC=C(c2ncc3ncnc(Nc4ccc(Oc5ccn6ncnc6c5)c(C)c4F)c3n2)CCC1 [Example 57] |  | 6.30 to 7.00 | < 100 nM
12 | C=CC(=O)N1CCC(c2ncc3ncnc(Nc4cc(C)c(Oc5ccn6ncnc6c5)cc4F)c3n2)=C[C@@H]1C [Example 58] | ≤ 6.00 | ≤ 6.00 | < 100 nM
13 | C=CC(=O)N1CC=C(c2ncc3ncnc(Nc4ccc(Oc5ccn6ncnc6c5)c(C(F)F)c4F)c3n2)C[C@@H]1C [Example 61] | ≤ 6.00 |  | 100 to 500 nM
14 | C=CC(=O)N1CCN(c2ncc3ncnc(Nc4ccc(Oc5ccn6ncnc6n5)c(C)c4F)c3n2)C[C@H]1C [Example 65] | ≤ 6.00 | ≤ 6.00 | 100 to 500 nM
15 | C=CC(=O)N1CC=C(c2nc3c(Nc4ccc(Oc5ccn6ncnc6c5)c(C)c4)ncnc3cc2OC)CC1 [Example 66] |  | 6.30 to 7.00 | < 100 nM
16 | C=CC(=O)N1CCN(c2ncc3ncnc(Nc4ccc(Oc5ccc6c(c5)ncn6C)cc4F)c3n2)CC1 [Example 67] | 6.00 to 6.30 | ≤ 6.00 | < 100 nM
17 | C=CC(=O)N1CCN(c2ncc3ncnc(Nc4ccc(Oc5ccc6c(c5)ncn6C)c(C)c4F)c3n2)C[C@H]1C [Example 68] | 6.30 to 7.00 | 6.00 to 6.30 | < 100 nM

Row | SMILES | pIC50 [1] | pIC50 [2] | GI50 [3]
18 | Cc1c(Oc2ccn3ncnc3c2)ccc(Nc2ncnc3cnc(C4=CCN(C(=O)/C=C/CN(C)C)CC4)nc23)c1F [Example 69] | 6.30 to 7.00 | 6.00 to 6.30 | < 100 nM
19 | C=CC(=O)N1CC=C(c2ccc3ncnc(Nc4ccc(Oc5ccn6ccnc6c5)c(C)c4)c3n2)CC1 [Example 70] | 6.30 to 7.00 | 6.30 to 7.00 | < 100 nM
20 | C=CC(=O)N1CC=C(c2ccc3ncnc(Nc4ccc(Oc5ccc6ccn(C)c6c5)c(C)c4)c3n2)CC1 [Example 71] | 6.30 to 7.00 | 6.30 to 7.00 | 100 to 500 nM
21 | C=CC(=O)N1CC=C(c2ccc3ncnc(Nc4ccc(Oc5ccn6nccc6c5)c(C)c4)c3n2)CC1 [Example 72] | 6.30 to 7.00 | > 7.00 | < 100 nM
22 | C=CC(=O)N1CCN(c2ncc3ncnc(Nc4ccc(Oc5cc6ncnn6cn5)c(C)c4F)c3n2)C[C@H]1C [Example 73] | 6.30 to 7.00 | 6.30 to 7.00 | < 100 nM
23 | C=CC(=O)N1CCN(c2ncc3ncnc(Nc4ccc(Oc5ccc6c(c5)ncn6C)c(C)c4F)c3n2)CC1 [Example 74] | > 7.00 | 6.30 to 7.00 | < 100 nM
24 | C=CC(=O)N1CCN(c2ccc3ncnc(Nc4ccc(Oc5ccn6c(C)cnc6c5)c(C)c4F)c3c2F)C[C@H]1C [Example 75] | 6.30 to 7.00 | 6.00 to 6.30 | < 100 nM
25 | C=CC(=O)N1CCN(c2ncc3ncnc(Nc4cc(C)c(Oc5ccn6ncnc6c5)cc4F)c3n2)CC1(C)C [Example 76] |  | ≤ 6.00 | 100 to 500 nM
26 | C=CC(=O)N1CCN(c2ncc3ncnc(Nc4ccc(Oc5ccn6ncnc6c5)c(C)c4F)c3n2)CC1(C)C [Example 77] |  | 6.30 to 7.00 | < 100 nM
27 | C=CC(=O)N1CC=C(c2ncc3ncnc(Nc4ccc(Oc5ccn6ncnc6c5)c(C)c4F)c3n2)C[C@H]1C [Example 80] | 6.00 to 6.30 | ≤ 6.00 | < 100 nM
28 | C=CC(=O)N1CCN(c2ncc3ncnc(Nc4ccc(Oc5ccn6ncnc6c5)c(C)c4F)c3n2)C[C@H]1CF [Example 81] | 6.30 to 7.00 | 6.30 to 7.00 | < 100 nM
29 | C=CC(=O)N1C(C)CN(c2ccc3ncnc(Nc4ccc(Oc5ccn6ncnc6c5)c(C)c4)c3n2)CC1C (stereo not drawn) [Example 92] |  | ≤ 6.00 | < 100 nM
30 | C=CC(=O)N1CCN(c2ccc3ncnc(Nc4ccc(Oc5ccn6ncnc6c5)c(C)c4F)c3c2F)CC1 [Example 93] |  | ≤ 6.00 | < 100 nM
31 | C=CC(=O)N1CC=C(c2ncc3ncnc(Nc4ccc(Oc5cc(C)n6ncnc6c5)c(C)c4F)c3n2)C[C@@H]1C [Example 97] | 6.00 to 6.30 |  | < 100 nM
32 | C=CC(=O)N1CCN(c2ncc3ncnc(Nc4ccc(Oc5ccn6ncnc6c5)c(C)c4F)c3n2)CC1 [Example 98] |  | 6.00 to 6.30 | < 100 nM
33 | C=CC(=O)N1CCN(c2ncc3ncnc(Nc4ccc(Oc5ccn6ncnc6c5)c(C)c4F)c3n2)C[C@H]1C(F)F [Example 99] |  | > 7.00 | < 100 nM
